Reference: the NIST ThermoML archive (doi:10.1016/j.jct.2012.09.026)
± gives the expanded uncertainty stated by the source.

Assay: xn = mol fraction of the nth substance listed
Conditions: Liquid

CC(C)(C)O [2-methylpropan-2-ol] + O
mass density [kg/m3]
Conditions	298.15 K	308.15 K	323.15 K
101.3 kPa, Vibrating tube method, x1 = 0.0248	–	978.65 ± 1	971.52 ± 1
101.3 kPa, Vibrating tube method, x1 = 0.04241	–	969.43 ± 1	960.77 ± 1
101.3 kPa, Vibrating tube method, x1 = 0.05887	–	959.67 ± 1	949.57 ± 1
101.3 kPa, Vibrating tube method, x1 = 0.08929	–	941.57 ± 1	930.6 ± 1
101.3 kPa, Vibrating tube method, x1 = 0.1125	–	928.56 ± 1	916.92 ± 1
101.3 kPa, Vibrating tube method, x1 = 0.1566	–	906.33 ± 1	893.97 ± 1
101.3 kPa, Vibrating tube method, x1 = 0.208	–	886.22 ± 1	873.34 ± 1
101.3 kPa, Vibrating tube method, x1 = 0.3023	–	856.97 ± 1	843.45 ± 1
101.3 kPa, Vibrating tube method, x1 = 0.4045	–	834.17 ± 1	820.18 ± 1
101.3 kPa, Vibrating tube method, x1 = 0.4827	–	820.93 ± 1	806.67 ± 1
101.3 kPa, Vibrating tube method, x1 = 0.5344	–	812.83 ± 1	798.37 ± 1
101.3 kPa, Vibrating tube method, x1 = 0.6029	–	803.86 ± 1	789.18 ± 1
101.3 kPa, Vibrating tube method, x1 = 0.726	–	790.54 ± 1	775.51 ± 1
101.3 kPa, Vibrating tube method, x1 = 0.7999	–	784.37 ± 1	768.91 ± 1
101.3 kPa, Vibrating tube method, x1 = 0.8711	–	778.45 ± 1	763 ± 1
101.3 kPa, Vibrating tube method, x1 = 0.9183	–	775.09 ± 1	759.52 ± 1
101.3 kPa, Vibrating tube method, x1 = 0.9574	–	772.63 ± 1	756.76 ± 1
101.3 kPa, Vibrating tube method, x1 = 1	–	770.14 ± 1	753.94 ± 1
10000 kPa, Constant-volume piezometry, x1 = 0.0248	–	982.6 ± 1	975.58 ± 1
10000 kPa, Constant-volume piezometry, x1 = 0.04241	–	973.49 ± 1	965.03 ± 1
10000 kPa, Constant-volume piezometry, x1 = 0.05887	–	963.89 ± 1	954.03 ± 1
10000 kPa, Constant-volume piezometry, x1 = 0.08929	–	946.1 ± 1	935.46 ± 1
10000 kPa, Constant-volume piezometry, x1 = 0.1125	–	933.31 ± 1	922.12 ± 1
10000 kPa, Constant-volume piezometry, x1 = 0.1566	–	911.53 ± 1	899.59 ± 1
10000 kPa, Constant-volume piezometry, x1 = 0.208	–	891.88 ± 1	879.35 ± 1
10000 kPa, Constant-volume piezometry, x1 = 0.3023	–	863.34 ± 1	850.13 ± 1
10000 kPa, Constant-volume piezometry, x1 = 0.4045	–	841.23 ± 1	827.69 ± 1
10000 kPa, Constant-volume piezometry, x1 = 0.4827	–	828.5 ± 1	814.74 ± 1
10000 kPa, Constant-volume piezometry, x1 = 0.5344	–	820.71 ± 1	806.74 ± 1
10000 kPa, Constant-volume piezometry, x1 = 0.6029	–	812.19 ± 1	797.93 ± 1
10000 kPa, Constant-volume piezometry, x1 = 0.726	–	799.44 ± 1	784.92 ± 1
10000 kPa, Constant-volume piezometry, x1 = 0.7999	–	–	778.73 ± 1
10000 kPa, Constant-volume piezometry, x1 = 0.8711	–	–	773.1 ± 1
10000 kPa, Constant-volume piezometry, x1 = 0.9183	–	–	769.84 ± 1
10000 kPa, Constant-volume piezometry, x1 = 0.9574	–	–	767.23 ± 1
10000 kPa, Constant-volume piezometry, x1 = 1	–	–	764.58 ± 1
25000 kPa, Constant-volume piezometry, x1 = 0.0248	–	988.54 ± 1.1	981.52 ± 1.1
25000 kPa, Constant-volume piezometry, x1 = 0.04241	–	979.65 ± 1.1	971.36 ± 1.1
25000 kPa, Constant-volume piezometry, x1 = 0.05887	–	970.24 ± 1.1	960.64 ± 1.1
25000 kPa, Constant-volume piezometry, x1 = 0.08929	–	952.8 ± 1.1	942.55 ± 1.1
25000 kPa, Constant-volume piezometry, x1 = 0.1125	–	940.3 ± 1.1	929.62 ± 1.1
25000 kPa, Constant-volume piezometry, x1 = 0.1566	–	919.1 ± 1.1	907.6 ± 1.1
25000 kPa, Constant-volume piezometry, x1 = 0.208	–	900.03 ± 1.1	887.94 ± 1.1
25000 kPa, Constant-volume piezometry, x1 = 0.3023	–	872.28 ± 1.1	859.69 ± 1.1
25000 kPa, Constant-volume piezometry, x1 = 0.4045	–	850.99 ± 1.1	838.16 ± 1.1
25000 kPa, Constant-volume piezometry, x1 = 0.4827	–	838.84 ± 1.1	825.82 ± 1.1
25000 kPa, Constant-volume piezometry, x1 = 0.5344	–	831.4 ± 1.1	818.13 ± 1.1
25000 kPa, Constant-volume piezometry, x1 = 0.6029	–	823.36 ± 1.1	809.81 ± 1.1
25000 kPa, Constant-volume piezometry, x1 = 0.726	–	811.34 ± 1.1	797.59 ± 1.1
25000 kPa, Constant-volume piezometry, x1 = 0.7999	–	–	791.84 ± 1.1
25000 kPa, Constant-volume piezometry, x1 = 0.8711	–	–	786.62 ± 1.1
25000 kPa, Constant-volume piezometry, x1 = 0.9183	–	–	783.6 ± 1.1
25000 kPa, Constant-volume piezometry, x1 = 0.9574	–	–	781.19 ± 1.1
25000 kPa, Constant-volume piezometry, x1 = 1	–	–	778.73 ± 1.1
50000 kPa, Constant-volume piezometry, x1 = 0.0248	–	998.04 ± 1.1	991.13 ± 1.1
50000 kPa, Constant-volume piezometry, x1 = 0.04241	–	989.37 ± 1.1	981.39 ± 1.1
50000 kPa, Constant-volume piezometry, x1 = 0.05887	–	980.26 ± 1.1	971.01 ± 1.1
50000 kPa, Constant-volume piezometry, x1 = 0.08929	–	963.39 ± 1.1	953.61 ± 1.1
50000 kPa, Constant-volume piezometry, x1 = 0.1125	–	951.52 ± 1.1	941.17 ± 1.1
50000 kPa, Constant-volume piezometry, x1 = 0.1566	–	931.05 ± 1.1	920.03 ± 1.1
50000 kPa, Constant-volume piezometry, x1 = 0.208	–	912.67 ± 1.1	901.32 ± 1.1
50000 kPa, Constant-volume piezometry, x1 = 0.3023	–	885.81 ± 1.1	874.39 ± 1.1
50000 kPa, Constant-volume piezometry, x1 = 0.4045	–	865.39 ± 1.1	853.64 ± 1.1
50000 kPa, Constant-volume piezometry, x1 = 0.4827	–	853.93 ± 1.1	841.81 ± 1.1
50000 kPa, Constant-volume piezometry, x1 = 0.5344	–	846.76 ± 1.1	834.43 ± 1.1
50000 kPa, Constant-volume piezometry, x1 = 0.6029	–	839.04 ± 1.1	826.63 ± 1.1
50000 kPa, Constant-volume piezometry, x1 = 0.726	–	827.94 ± 1.1	815.19 ± 1.1
50000 kPa, Constant-volume piezometry, x1 = 0.7999	–	–	809.91 ± 1.1
50000 kPa, Constant-volume piezometry, x1 = 0.8711	–	–	805.23 ± 1.1
50000 kPa, Constant-volume piezometry, x1 = 0.9183	–	–	802.47 ± 1.1
50000 kPa, Constant-volume piezometry, x1 = 0.9574	–	–	800.32 ± 1.1
50000 kPa, Constant-volume piezometry, x1 = 1	–	–	798.2 ± 1.1
75000 kPa, Constant-volume piezometry, x1 = 0.0248	–	1006.97 ± 1.2	1000.34 ± 1.2
75000 kPa, Constant-volume piezometry, x1 = 0.04241	–	998.3 ± 1.2	990.63 ± 1.2
75000 kPa, Constant-volume piezometry, x1 = 0.05887	–	989.51 ± 1.2	980.49 ± 1.2
75000 kPa, Constant-volume piezometry, x1 = 0.08929	–	973.24 ± 1.2	963.7 ± 1.2
75000 kPa, Constant-volume piezometry, x1 = 0.1125	–	961.84 ± 1.2	951.62 ± 1.2
75000 kPa, Constant-volume piezometry, x1 = 0.1566	–	941.93 ± 1.2	931.22 ± 1.2
75000 kPa, Constant-volume piezometry, x1 = 0.208	–	924 ± 1.2	913.19 ± 1.2
75000 kPa, Constant-volume piezometry, x1 = 0.3023	–	897.73 ± 1.2	887.1 ± 1.2
75000 kPa, Constant-volume piezometry, x1 = 0.4045	–	877.69 ± 1.2	866.87 ± 1.2
75000 kPa, Constant-volume piezometry, x1 = 0.4827	–	866.59 ± 1.2	855.33 ± 1.2
75000 kPa, Constant-volume piezometry, x1 = 0.5344	–	859.52 ± 1.2	848.15 ± 1.2
75000 kPa, Constant-volume piezometry, x1 = 0.6029	–	851.9 ± 1.2	840.58 ± 1.2
75000 kPa, Constant-volume piezometry, x1 = 0.726	–	841.27 ± 1.2	829.57 ± 1.2
75000 kPa, Constant-volume piezometry, x1 = 0.7999	–	–	824.52 ± 1.2
75000 kPa, Constant-volume piezometry, x1 = 0.8711	–	–	820.17 ± 1.2
75000 kPa, Constant-volume piezometry, x1 = 0.9183	–	–	817.6 ± 1.2
75000 kPa, Constant-volume piezometry, x1 = 0.9574	–	–	815.64 ± 1.2
75000 kPa, Constant-volume piezometry, x1 = 1	–	–	813.79 ± 1.2
100000 kPa, Constant-volume piezometry, x1 = 0.0248	–	1015.14 ± 1.3	1009.12 ± 1.3
100000 kPa, Constant-volume piezometry, x1 = 0.04241	1010.64 ± 1.3	1006.32 ± 1.3	998.9 ± 1.3
100000 kPa, Constant-volume piezometry, x1 = 0.05887	1003.04 ± 1.3	997.93 ± 1.3	989.01 ± 1.3
100000 kPa, Constant-volume piezometry, x1 = 0.08929	988.13 ± 1.3	982.34 ± 1.3	972.81 ± 1.3
100000 kPa, Constant-volume piezometry, x1 = 0.1125	976.75 ± 1.3	970.82 ± 1.3	961.04 ± 1.3
100000 kPa, Constant-volume piezometry, x1 = 0.1566	957.51 ± 1.3	951.42 ± 1.3	941.06 ± 1.3
100000 kPa, Constant-volume piezometry, x1 = 0.208	940.04 ± 1.3	933.91 ± 1.3	923.15 ± 1.3
100000 kPa, Constant-volume piezometry, x1 = 0.3023	915 ± 1.3	908.14 ± 1.3	897.26 ± 1.3
100000 kPa, Constant-volume piezometry, x1 = 0.4045	895.56 ± 1.3	888.2 ± 1.3	878.13 ± 1.3
100000 kPa, Constant-volume piezometry, x1 = 0.4827	884.31 ± 1.3	877.25 ± 1.3	867.33 ± 1.3
100000 kPa, Constant-volume piezometry, x1 = 0.5344	877.51 ± 1.3	870.36 ± 1.3	860.41 ± 1.3
100000 kPa, Constant-volume piezometry, x1 = 0.6029	869.84 ± 1.3	863.06 ± 1.3	852.9 ± 1.3
100000 kPa, Constant-volume piezometry, x1 = 0.726	–	852.47 ± 1.3	842.31 ± 1.3
100000 kPa, Constant-volume piezometry, x1 = 0.7999	–	–	837.55 ± 1.3
100000 kPa, Constant-volume piezometry, x1 = 0.8711	–	–	833.28 ± 1.3
100000 kPa, Constant-volume piezometry, x1 = 0.9183	–	–	830.96 ± 1.3
100000 kPa, Constant-volume piezometry, x1 = 0.9574	–	–	829.12 ± 1.3
100000 kPa, Constant-volume piezometry, x1 = 1	–	–	827.34 ± 1.3
